From patent publication US7811352B2, “Fertilizer compositions and methods of using” (priority 2005, dated 2010)
Marks after values point to notes of the source that are not given here.

Experiments:
Assay type in all cases: in vivo
[1] = tested on: green height, creeping bentgrass; assay: Color rating of green height creeping bentgrass after fertilization (Example 4); conditions: about two weeks after application
Protocol: In this Example, the efficacy of fertilizers on green height, creeping bentgrass was examined. Fertilizer compositions according to several embodiments of the present disclosure were prepared and compared to the commercial fertilizer products, urea 46-0-0 (granular) fertilizer, Lebanon fertilizer 21-0-12 (granular, commercially available from Lebanon Seaboard Corporation, Lebanon, Pa.) and Milorganite 6-2-0 (granular, commercially available from Milorganite, Milwaukee, Wis.). The fertilizer compositions were applied to the turf grass prior to winter dormancy of the turf at a rate equivalent to supplying about 1.0 pounds of nitrogen (N) per 1000 square feet. Each of the fertilizer compositions were applied at substantially equal rates of pounds (lbs) of nitrogen (N) per 1000 square feet. Table 1 illustrates the response of green height (i.e., the height of grass on golf course green), creeping bentgrass to fertilization using various exemplary fertilizers of the present invention, taken about two weeks after application of the fertilizer. The letters in the Color and Injury columns correspond to Duncan's Multiple Range Test. Numbers (means) in a column followed by the same letter are not statistically different at P=0.05.

[2] = tested on: Floratam St. Augustine grass; assay: Phytotoxicity rating, St. Augustine grass (Example 9); conditions: for Phytotoxicity - St. Augustine Grass: scale 0-5, 5=worst
Description: In this Example, the effect of a fertilizer comprising lysine on warn season turfgrass growth was examined. The effects of lysine (HCl) and LIQUID LYSINE on a common type of lawn quality turfgrass (St. Augustine grass) were compared with those of urea and Milorganite. St. Augustine grass is a commonly utilized turfgrass throughout the warm, tropical zones for lawn turf and is a commercially significant species.
Twelve fertilizer treatments comprising three concentrations of each fertilizer composition (Milorganite (N—P—K, 6-2-0), urea N—P—K, 46-0-0), LIQUID LYSINE (N—P—K, 10-2-1), and lysine (HCl) (N—P—K, 15-2-1)) were prepared and applied to 4 replications of Floratam St. Augustine grass. The lysine (HCl) was dissolved in water prior to application. Each fertilizer treatment was applied in concentrations of 0.5 lb N/1000 ft^2/month, 1.0 lb N/1000 ft^2/month and 3.0 lb N/1000 ft^2/month. The urea, LIQUID LYSINE and lysine (HCl) were applied as foliar liquids, while Milorganite was applied as a granular fertilizer. Plot size was 1 m×2 m set up as a randomized complete block. Plots were mowed at 3.0 inches before fertilizer application. Irrigation (0.15 inch) was applied following application. Plots were rated for turfgrass quality and color (scale of 1-10 where 10=dark green turf, 1=dead/brown turf; and 6=minimally acceptable turf) and phytotoxicity (scale of 0-5, where 5=worst, and 2=minimally objectionable) throughout the study period. Quality, color, and phytotoxicity were measured on 2 days before application (day −2) and day 2, day 5, day 15 and day 21 after application. All data was subject to statistical analysis and significant means were determined. Average turfgrass quality ratings for the treatments are presented in Table 6 and the quality results for application rates of 1.0 lb N/1000 ft^2/month are graphically presented in FIG. 2.

[3] = tested on: ultra-dwarf Bermuda grass; assay: Turfgrass quality and color ratings, ultra-dwarf Bermuda grass greens (Example 11); set-up: key: 1-10 scale: 10 = dark green, 6 = initially acceptable, 1 = dead/brown; conditions: scale 1-10
Description: In this Example, the effect of a fertilizer comprising lysine on warm season turfgrass growth was examined. The effects of lysine (HCl) and LIQUID LYSINE on a common type of golf course greens quality turfgrass (ultra-dwarf Bermuda grass) were compared with those of urea and Milorganite.
Twelve fertilizer treatments comprising three concentrations of each fertilizer composition (Milorganite (N—P—K, 6-2-0), urea (N—P—K, 46-0-0), LIQUID LYSINE (N—P—K, 10-2-1), and lysine (HCl) (N—P—K, 15-2-1)) were prepared and applied to 3 replications of ultra-dwarf Bermuda grass. The lysine (HCl) was dissolved in water prior to application. Each fertilizer treatment was applied in concentrations of 0.125 lb N/1000 ft^2/week, 0.25 lb N/1000 ft^2/week and 0.75 lb N/1000 ft^2/week. The urea, LIQUID LYSINE and lysine (HCl) were applied as foliar liquids, while Milorganite was applied as a granular fertilizer. Plot size was 1 m×1 m set up as a randomized complete block. Plots were mowed at 0.125 inches before fertilizer application. Irrigation (0.15 inch) was applied following application. Plots were rated for turfgrass quality and color (scale of 1-10 where 10=dark green turf, 1=dead/brown turf, and 6=initially acceptable turf) and phytotoxicity (scale of 0-5, where 5=worst, and 2=minimally objectionable) throughout the study period. Quality, color, and phytotoxicity were measured on 2 days before application (day −2) and day 2, day 5, day 15 and day 21 after application. All data was subject to statistical analysis and significant means were determined. Average turfgrass quality ratings for the treatments are presented in Table 12 and the quality results for application rates of 0.25 lb N/1000 ft^2/week are graphically presented in FIG. 6.

[4] = Monthly Rate 0.5 lbs N/1000 ft^2, Day 2
[5] = Monthly Rate 0.5 lbs N/1000 ft^2, Day 5
[6] = Monthly Rate 0.5 lbs N/1000 ft^2, Day 15
[7] = Monthly Rate 0.5 lbs N/1000 ft^2, Day 21
[8] = Monthly Rate 0.5 lbs N/1000 ft^2, Day −2 (before application)
[9] = Monthly Rate 1.0 lbs N/1000 ft^2, Day 2
[10] = Monthly Rate 1.0 lbs N/1000 ft^2, Day 5
[11] = Monthly Rate 1.0 lbs N/1000 ft^2, Day 15
[12] = Monthly Rate 1.0 lbs N/1000 ft^2, Day 21
[13] = Monthly Rate 1.0 lbs N/1000 ft^2, Day −2 (before application)
[14] = Monthly Rate 3.0 lbs N/1000 ft^2, Day 2
[15] = Monthly Rate 3.0 lbs N/1000 ft^2, Day 5
[16] = Monthly Rate 3.0 lbs N/1000 ft^2, Day 15
[17] = Monthly Rate 3.0 lbs N/1000 ft^2, Day 21
[18] = Monthly Rate 3.0 lbs N/1000 ft^2, Day −2 (before application)
[19] = Weekly Rate 0.125 lbs N/1000 ft^2, Day 2
[20] = Weekly Rate 0.125 lbs N/1000 ft^2, Day 5
[21] = Weekly Rate 0.125 lbs N/1000 ft^2, Day 15
[22] = Weekly Rate 0.125 lbs N/1000 ft^2, Day 21
[23] = Weekly Rate 0.125 lbs N/1000 ft^2, Day −2 (before application)
[24] = Weekly Rate 0.25 lbs N/1000 ft^2, Day 2
[25] = Weekly Rate 0.25 lbs N/1000 ft^2, Day 5
[26] = Weekly Rate 0.25 lbs N/1000 ft^2, Day 15
[27] = Weekly Rate 0.25 lbs N/1000 ft^2, Day 21
[28] = Weekly Rate 0.25 lbs N/1000 ft^2, Day −2 (before application)
[29] = Weekly Rate 0.75 lbs N/1000 ft^2, Day 2
[30] = Weekly Rate 0.75 lbs N/1000 ft^2, Day 5
[31] = Weekly Rate 0.75 lbs N/1000 ft^2, Day 15
[32] = Weekly Rate 0.75 lbs N/1000 ft^2, Day 21
[33] = Weekly Rate 0.75 lbs N/1000 ft^2, Day −2 (before application)

NC(N)=O [Urea, urea, reference compound]
Color 1-9 (9 = dark green) ([1]; 1.09 Lbs. product/1000 square feet): 6.7^a,b,c | Color 1-9 (9 = dark green) ([1]; 2.17 Lbs. product/1000 square feet): 6.7^a,b,c | Color 1-9 (9 = dark green) ([1]; 6.51 Lbs. product/1000 square feet): 6.0^d,c | phytotoxicity ([2]; 1.0 lb N/1000 ft^2 and 3.0 lb N/1000 ft^2 application rate): some phytotoxicity | Phytotoxicity - St. Augustine Grass [2, 4]: 0.6bc | Phytotoxicity - St. Augustine Grass [2, 5]: 1.6bc | Phytotoxicity - St. Augustine Grass [2, 6]: 0 | Phytotoxicity - St. Augustine Grass [2, 7]: 0 | Phytotoxicity - St. Augustine Grass [2, 8]: 0 | Phytotoxicity - St. Augustine Grass [2, 9]: 1.5b | Phytotoxicity - St. Augustine Grass [2, 10]: 2.0ab | Phytotoxicity - St. Augustine Grass [2, 11]: 0 | Phytotoxicity - St. Augustine Grass [2, 12]: 0 | Phytotoxicity - St. Augustine Grass [2, 13]: 0 | Phytotoxicity - St. Augustine Grass [2, 14]: 2.8a | Phytotoxicity - St. Augustine Grass [2, 15]: 3.0a | Phytotoxicity - St. Augustine Grass [2, 16]: 0 | Phytotoxicity - St. Augustine Grass [2, 17]: 0 | Phytotoxicity - St. Augustine Grass [2, 18]: 0 | Color Rating - Dwarf Bermuda Grass [3, 19]: 7.7ab | Quality Ratings - Dwarf Bermuda Grass [3, 19]: 7.7abc | Color Rating - Dwarf Bermuda Grass [3, 20]: 7.7ab | Quality Ratings - Dwarf Bermuda Grass [3, 20]: 7.5bc | Color Rating - Dwarf Bermuda Grass [3, 21]: 7.2bcd | Quality Ratings - Dwarf Bermuda Grass [3, 21]: 7.0bcd | Color Rating - Dwarf Bermuda Grass [3, 22]: 6.8bc | Quality Ratings - Dwarf Bermuda Grass [3, 22]: 6.7abc | Color Rating - Dwarf Bermuda Grass [3, 23]: 7.0 | Quality Ratings - Dwarf Bermuda Grass [3, 23]: 6.5 | Color Rating - Dwarf Bermuda Grass [3, 24]: 7.7ab | Quality Ratings - Dwarf Bermuda Grass [3, 24]: 7.7abc | Color Rating - Dwarf Bermuda Grass [3, 25]: 7.3abc | Quality Ratings - Dwarf Bermuda Grass [3, 25]: 7.5bc | Color Rating - Dwarf Bermuda Grass [3, 26]: 7.3bc | Quality Ratings - Dwarf Bermuda Grass [3, 26]: 7.0bcd | Color Rating - Dwarf Bermuda Grass [3, 27]: 7.3ab | Quality Ratings - Dwarf Bermuda Grass [3, 27]: 6.8abc | Color Rating - Dwarf Bermuda Grass [3, 28]: 6.7 | Quality Ratings - Dwarf Bermuda Grass [3, 28]: 6.3 | Color Rating - Dwarf Bermuda Grass [3, 29]: 7.8a | Quality Ratings - Dwarf Bermuda Grass [3, 29]: 8.2a | Color Rating - Dwarf Bermuda Grass [3, 30]: 7.8a | Quality Ratings - Dwarf Bermuda Grass [3, 30]: 8.3a | Color Rating - Dwarf Bermuda Grass [3, 31]: 8.0a | Quality Ratings - Dwarf Bermuda Grass [3, 31]: 7.5ab | Color Rating - Dwarf Bermuda Grass [3, 32]: 7.8a | Quality Ratings - Dwarf Bermuda Grass [3, 32]: 7.3a | Color Rating - Dwarf Bermuda Grass [3, 33]: 6.8 | Quality Ratings - Dwarf Bermuda Grass [3, 33]: 6.3

Cl.NCCCC[C@H](N)C(=O)O [Lys (HCl) 15% N, L-lysine monohydrochloride]
Phytotoxicity - St. Augustine Grass [2, 4]: 0.0c | Phytotoxicity - St. Augustine Grass [2, 5]: 0.4cd | Phytotoxicity - St. Augustine Grass [2, 6]: 0 | Phytotoxicity - St. Augustine Grass [2, 7]: 0 | Phytotoxicity - St. Augustine Grass [2, 8]: 0 | Phytotoxicity - St. Augustine Grass [2, 9]: 0.0c | Phytotoxicity - St. Augustine Grass [2, 10]: 1.1bcd | Phytotoxicity - St. Augustine Grass [2, 11]: 0 | Phytotoxicity - St. Augustine Grass [2, 12]: 0 | Phytotoxicity - St. Augustine Grass [2, 13]: 0 | Phytotoxicity - St. Augustine Grass [2, 14]: 0.4bc | Phytotoxicity - St. Augustine Grass [2, 15]: 1.1bcd | Phytotoxicity - St. Augustine Grass [2, 16]: 0 | Phytotoxicity - St. Augustine Grass [2, 17]: 0 | Phytotoxicity - St. Augustine Grass [2, 18]: 0 | Color Rating - Dwarf Bermuda Grass [3, 19]: 7.2bc | Quality Ratings - Dwarf Bermuda Grass [3, 19]: 7.3bcd | Color Rating - Dwarf Bermuda Grass [3, 20]: 7.0cd | Quality Ratings - Dwarf Bermuda Grass [3, 20]: 6.7de | Color Rating - Dwarf Bermuda Grass [3, 21]: 6.8c-f | Quality Ratings - Dwarf Bermuda Grass [3, 21]: 6.3ef | Color Rating - Dwarf Bermuda Grass [3, 22]: 6.5cd | Quality Ratings - Dwarf Bermuda Grass [3, 22]: 6.2cd | Color Rating - Dwarf Bermuda Grass [3, 23]: 6.8 | Quality Ratings - Dwarf Bermuda Grass [3, 23]: 6.8 | Color Rating - Dwarf Bermuda Grass [3, 24]: 7.2bc | Quality Ratings - Dwarf Bermuda Grass [3, 24]: 7.2cd | Color Rating - Dwarf Bermuda Grass [3, 25]: 7.2bcd | Quality Ratings - Dwarf Bermuda Grass [3, 25]: 7.2cd | Color Rating - Dwarf Bermuda Grass [3, 26]: 7.2bcd | Quality Ratings - Dwarf Bermuda Grass [3, 26]: 7.2abc | Color Rating - Dwarf Bermuda Grass [3, 27]: 7.3ab | Quality Ratings - Dwarf Bermuda Grass [3, 27]: 7.2ab | Color Rating - Dwarf Bermuda Grass [3, 28]: 7.0 | Quality Ratings - Dwarf Bermuda Grass [3, 28]: 6.5 | Color Rating - Dwarf Bermuda Grass [3, 29]: 7.3abc | Quality Ratings - Dwarf Bermuda Grass [3, 29]: 7.5abc | Color Rating - Dwarf Bermuda Grass [3, 30]: 7.2bcd | Quality Ratings - Dwarf Bermuda Grass [3, 30]: 7.5bc | Color Rating - Dwarf Bermuda Grass [3, 31]: 7.7ab | Quality Ratings - Dwarf Bermuda Grass [3, 31]: 7.3abc | Color Rating - Dwarf Bermuda Grass [3, 32]: 7.2b | Quality Ratings - Dwarf Bermuda Grass [3, 32]: 6.8abc | Color Rating - Dwarf Bermuda Grass [3, 33]: 6.7 | Quality Ratings - Dwarf Bermuda Grass [3, 33]: 6.5
